# Data taken from ChEMBL document CHEMBL3352342, “Nucleotide-binding oligomerization domain (NOD) inhibitors: a rational approach toward inhibition of NOD signaling pathway” (J Med Chem, 2014).
# Target: T1, Nucleotide-binding oligomerization domain-containing protein 1 (Homo sapiens, UniProt Q9Y239)
# T1 sequence (Q9Y239 whole entry): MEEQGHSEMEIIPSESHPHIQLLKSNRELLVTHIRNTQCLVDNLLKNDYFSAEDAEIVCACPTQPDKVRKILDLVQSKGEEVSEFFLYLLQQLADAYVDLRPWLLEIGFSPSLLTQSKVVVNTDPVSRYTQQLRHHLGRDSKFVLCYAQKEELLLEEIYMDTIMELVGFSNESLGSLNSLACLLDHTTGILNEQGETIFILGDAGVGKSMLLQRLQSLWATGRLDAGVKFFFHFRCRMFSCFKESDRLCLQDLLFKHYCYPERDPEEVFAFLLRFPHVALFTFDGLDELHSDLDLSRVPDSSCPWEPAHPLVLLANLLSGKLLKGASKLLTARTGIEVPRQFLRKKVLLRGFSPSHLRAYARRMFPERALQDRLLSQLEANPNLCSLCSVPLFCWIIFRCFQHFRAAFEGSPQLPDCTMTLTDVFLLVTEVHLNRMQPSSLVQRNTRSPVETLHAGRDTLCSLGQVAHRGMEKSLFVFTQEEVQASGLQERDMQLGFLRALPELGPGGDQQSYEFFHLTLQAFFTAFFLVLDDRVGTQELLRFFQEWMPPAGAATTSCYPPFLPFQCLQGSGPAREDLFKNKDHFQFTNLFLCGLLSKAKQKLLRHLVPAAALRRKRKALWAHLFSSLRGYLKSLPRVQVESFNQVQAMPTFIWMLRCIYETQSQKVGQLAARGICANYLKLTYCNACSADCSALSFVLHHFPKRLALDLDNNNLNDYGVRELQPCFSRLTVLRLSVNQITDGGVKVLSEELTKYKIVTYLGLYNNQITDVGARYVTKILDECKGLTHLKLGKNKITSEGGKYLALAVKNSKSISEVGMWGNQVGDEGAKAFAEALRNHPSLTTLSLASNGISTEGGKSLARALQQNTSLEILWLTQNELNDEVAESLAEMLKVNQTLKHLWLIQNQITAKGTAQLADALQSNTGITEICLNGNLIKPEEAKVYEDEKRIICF
# Assay: Inhibition of NOD1 (unknown origin) expressed in HEK293T cells coexpressing NF-kappaB driven luciferase reporter gene by HTS primary assay
# Format: cell-based, HEK-293T
row,Structure (SMILES),IC50 [nM]
1,O=C(Cn1c(CCNC(=O)c2ccccc2)nc2ccccc21)Nc1ccc2c(c1)CCC2,3300
2,CC(C)c1cccc(NC(=O)Cn2c(CCNC(=O)c3ccccc3)nc3ccccc32)c1,800
3,O=C(Cn1c(CCNC(=O)c2ccccc2)nc2ccccc21)Nc1ccc2ccccc2c1,1600
4,O=C(Cn1c(CCNC(=O)c2ccccc2)nc2cc(Cl)ccc21)Nc1ccc2c(c1)CCC2,1300
5,O=C(Cn1c(CCNC(=O)c2ccc3ccccc3c2)nc2ccccc21)Nc1ccc2c(c1)CCC2,3400
6,CN(CCc1nc2ccccc2n1CC(=O)Nc1ccc2c(c1)CCC2)C(=O)c1ccccc1,400
7,CN(CCc1nc2ccccc2n1CC(=O)Nc1ccc2c(c1)CCC2)C(=O)c1ccc2ccccc2c1,200

# Target: Nucleotide-binding oligomerization domain-containing protein 2 (Homo sapiens, UniProt Q9HC29)
# Assay: Inhibition of NOD2 (unknown origin) expressed in HEK293T cells coexpressing NF-kappaB driven luciferase reporter gene by HTS primary assay
# Format: cell-based, HEK-293T
# Nucleotide-binding oligomerization domain-containing protein 2, sequence (Q9HC29 whole entry, the tested form may be a part): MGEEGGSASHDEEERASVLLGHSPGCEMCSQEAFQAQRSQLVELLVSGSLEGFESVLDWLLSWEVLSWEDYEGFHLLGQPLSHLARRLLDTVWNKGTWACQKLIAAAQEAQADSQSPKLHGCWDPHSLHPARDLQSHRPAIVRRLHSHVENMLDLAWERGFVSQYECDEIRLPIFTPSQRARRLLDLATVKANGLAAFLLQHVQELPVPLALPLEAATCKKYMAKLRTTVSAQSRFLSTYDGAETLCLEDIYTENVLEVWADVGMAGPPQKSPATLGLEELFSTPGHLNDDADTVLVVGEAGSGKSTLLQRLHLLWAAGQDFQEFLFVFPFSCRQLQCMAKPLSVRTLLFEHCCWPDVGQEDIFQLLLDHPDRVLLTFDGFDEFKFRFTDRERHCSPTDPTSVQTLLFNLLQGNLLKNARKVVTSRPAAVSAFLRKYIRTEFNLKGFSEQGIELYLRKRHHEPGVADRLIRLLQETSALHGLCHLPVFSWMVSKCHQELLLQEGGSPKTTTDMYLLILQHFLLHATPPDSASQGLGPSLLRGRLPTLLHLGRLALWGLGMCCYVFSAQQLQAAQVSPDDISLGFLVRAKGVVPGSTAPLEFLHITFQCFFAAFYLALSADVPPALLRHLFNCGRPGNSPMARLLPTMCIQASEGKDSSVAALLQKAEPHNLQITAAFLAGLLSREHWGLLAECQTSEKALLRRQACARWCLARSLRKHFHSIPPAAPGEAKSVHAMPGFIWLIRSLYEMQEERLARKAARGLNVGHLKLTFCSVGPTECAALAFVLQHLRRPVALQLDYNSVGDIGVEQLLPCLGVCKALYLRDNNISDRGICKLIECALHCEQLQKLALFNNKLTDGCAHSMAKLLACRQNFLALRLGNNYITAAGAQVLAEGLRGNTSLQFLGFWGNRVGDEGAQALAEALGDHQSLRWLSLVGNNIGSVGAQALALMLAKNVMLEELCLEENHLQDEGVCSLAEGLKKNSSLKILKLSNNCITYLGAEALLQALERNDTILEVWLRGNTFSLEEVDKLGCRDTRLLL
row,Structure (SMILES),IC50 [nM]
1,Cc1ccc(S(=O)(=O)n2c(N)nc3ccccc32)cc1,> 20000
2,C/C=C/Cn1c(SCCCc2ccccc2)nc2c1c(=O)[nH]c(=O)n2C,12700
3,CCCCCn1c(SCCc2ccccc2)nc2c1c(=O)[nH]c(=O)n2C,> 20000
